Data reported in ChEMBL document CHEMBL2157896, “Engineering pH-gated transitions for selective and efficient double-strand DNA photocleavage in hypoxic tumors” (J Med Chem, 2011).
Calls of active or inactive are those of the source. The rule behind the calls is not given here.

Tests used:
A-375 [1] = assay: Drug uptake in human A375 cells at 30 uM incubated for 30 mins by fluorescence microscopy; type: ADME, cell-based; conditions: a-375, 0.5 h
Nucleic Acid [2] = assay: Induction of DNA cleavage in Escherichia coli pBR322 at 5 uM in pH 6.0 phosphate buffer measured after of UV irradiation; type: nucleic-acid assay
A-375 [3] = assay: Toxicity in human A375 cells at <10 uM under dark condition incubated for 72 hrs by MTT assay; type: cell-based; conditions: a-375, 72 h
A-375 [4] = assay: Phototoxicity in human A375 cells incubated for 72 hrs exposed to UV light for 10 mins by MTT assay; type: functional
Nucleic Acid [5] = assay: Induction of DNA cleavage in Escherichia coli pBR322 at 10 uM in pH 7.0 phosphate buffer measured after of UV irradiation; type: nucleic-acid assay
Nucleic Acid [6] = assay: Induction of DNA cleavage in Escherichia coli pBR322 at 5 uM in pH 7.0 phosphate buffer measured after of UV irradiation; type: nucleic-acid assay
A-375 [7] = assay: Drug uptake in human A375 cells at 30 uM incubated for 30 mins by differential interference contrast microscopy; type: ADME, cell-based; conditions: a-375, 0.5 h
Nucleic Acid [8] = assay: Induction of DNA cleavage in Escherichia coli pBR322 at 10 uM in pH 8.0 phosphate buffer measured after of UV irradiation; type: nucleic-acid assay
Nucleic Acid [9] = assay: Induction of DNA damage in Escherichia coli pBR322 at 5 uM in pH 6.0 phosphate buffer measured after of UV irradiation; type: nucleic-acid assay
Nucleic Acid [10] = assay: Induction of DNA cleavage in Escherichia coli pBR322 assessed as form3/form2 ratio after UV irradiation; type: nucleic-acid assay
Nucleic Acid [11] = assay: Induction of photochemical DNA cleavage in Escherichia coli pBR322 assessed as supercoiled DNA level at 10 uM in pH 6.0 phosphate buffer measured after UV irradiation; type: nucleic-acid assay
Nucleic Acid [12] = assay: Induction of photochemical DNA cleavage in Escherichia coli pBR322 assessed as disappearance of supercoiled DNA at 15 uM in pH 7.0 phosphate buffer after 10 mins of UV irradiation; type: nucleic-acid assay
Nucleic Acid [13] = assay: Induction of DNA cleavage in Escherichia coli pBR322 assessed as form3/form2 ratio at 15 uM at pH 6 to 9 after 10 mins of UV irradiation; type: nucleic-acid assay
Nucleic Acid [14] = assay: Induction of photochemical DNA cleavage in Escherichia coli pBR322 assessed as supercoiled DNA level at 15 uM in pH 6.0 phosphate buffer measured after 30 secs of UV irradiation; type: nucleic-acid assay
Nucleic Acid [15] = assay: Induction of DNA cleavage in Escherichia coli pBR322 at 10 uM in pH 6.0 phosphate buffer measured after of UV irradiation; type: nucleic-acid assay
Nucleic Acid [16] = assay: Induction of photochemical DNA cleavage in Escherichia coli pBR322 assessed as disappearance of supercoiled DNA at 15 uM in pH 6.0 phosphate buffer after 10 mins of UV irradiation; type: nucleic-acid assay
Nucleic Acid [17] = assay: Induction of photochemical DNA cleavage in Escherichia coli pBR322 assessed as disappearance of supercoiled DNA at 15 uM in pH 8.0 phosphate buffer after 10 mins of UV irradiation; type: nucleic-acid assay
Nucleic Acid [18] = assay: Induction of DNA cleavage in Escherichia coli pBR322 at 15 uM in pH 6.0 phosphate buffer measured after of UV irradiation; type: nucleic-acid assay

| Drug uptake (A-375 [1]) | Activity (Nucleic Acid [2]) | Activity (Nucleic Acid [5]) | Activity (Nucleic Acid [6]) | Drug uptake (A-375 [7]) | Activity (Nucleic Acid [8]) | Activity (Nucleic Acid [10]) | Activity (Nucleic Acid [11]) | Activity (Nucleic Acid [12]) | Ratio (Nucleic Acid [13]) | Activity (Nucleic Acid [14]) | Activity (Nucleic Acid [15]) | Activity (Nucleic Acid [16]) | Activity (Nucleic Acid [17]) | Activity (Nucleic Acid [18]) | SMILES | Activity (A-375 [3]) | CC50 (A-375 [4]) | Activity (Nucleic Acid [9]) |
| --- | --- | --- | --- | --- | --- | --- | --- | --- | --- | --- | --- | --- | --- | --- | --- | --- | --- | --- |
| Active | 17% | Active | inactive | Active | Active | – | – | – | – | – | – | – | – | – | NCCCC[C@H](N)C(=O)NCCCC[C@H](N)C(=O)Nc1ccc(C#Cc2c(F)c(F)nc(F)c2F)c(C#Cc2c(F)c(F)nc(F)c2F)c1.O=C(O)C(F)(F)F | Non-toxic | Active | 92% |
| – | – | – | – | – | – | Active | – | – | – | – | – | – | – | – | CCN[C@H]1CO[C@@H](O[C@H]2[C@H](O[C@H]3C#C/C=C\C#C[C@]4(O)CC(=O)C(NC(=O)OC)=C3/C4=C\CSSSC)O[C@H](C)[C@@H](NO[C@H]3C[C@H](O)[C@H](SC(=O)c4c(C)c(I)c(O[C@@H]5O[C@@H](C)[C@H](O)[C@@H](OC)[C@H]5O)c(OC)c4OC)[C@@H](C)O3)[C@@H]2O)C[C@@H]1OC | – | – | – |
| Active | 32% | > 61% | – | Active | – | – | inactive | Active | 1 | Active | 136% | Active | Active | 155% | NCCCC[C@H](NC(=O)[C@@H](N)CCCCN)C(=O)Nc1ccc(C#Cc2c(F)c(F)nc(F)c2F)cc1.O=C(O)C(F)(F)F | Non-toxic | Active | – |
| Active | 13% | Active | inactive | Active | Active | – | – | – | – | – | – | – | – | – | NCCCC[C@H](NC(=O)[C@@H](N)CCCCN)C(=O)Nc1ccc(C#Cc2c(F)c(F)nc(F)c2F)c(C#Cc2c(F)c(F)nc(F)c2F)c1.O=C(O)C(F)(F)F | Non-toxic | Active | 77% |
